For this test, the target named is human α2δ-1 subunit of Cav2.2 calcium channel (Homo sapiens (Human), UniProt P54289). As to the kind of experiment: Binding assay to human α2δ-1 subunit of Cav2.2 calcium channel ([3H]-Gabapentin). The settings on record: binding to α2δ-1, [3H]-Gabapentin; read-out: Ki (nM) α2δ-1. As to the method: Binding Assay to Human α2δ-1 Subunit of Cav2.2 Calcium Channel.
human α2δ-1 subunit of Cav2.2 calcium channel, sequence (P54289 25-1103): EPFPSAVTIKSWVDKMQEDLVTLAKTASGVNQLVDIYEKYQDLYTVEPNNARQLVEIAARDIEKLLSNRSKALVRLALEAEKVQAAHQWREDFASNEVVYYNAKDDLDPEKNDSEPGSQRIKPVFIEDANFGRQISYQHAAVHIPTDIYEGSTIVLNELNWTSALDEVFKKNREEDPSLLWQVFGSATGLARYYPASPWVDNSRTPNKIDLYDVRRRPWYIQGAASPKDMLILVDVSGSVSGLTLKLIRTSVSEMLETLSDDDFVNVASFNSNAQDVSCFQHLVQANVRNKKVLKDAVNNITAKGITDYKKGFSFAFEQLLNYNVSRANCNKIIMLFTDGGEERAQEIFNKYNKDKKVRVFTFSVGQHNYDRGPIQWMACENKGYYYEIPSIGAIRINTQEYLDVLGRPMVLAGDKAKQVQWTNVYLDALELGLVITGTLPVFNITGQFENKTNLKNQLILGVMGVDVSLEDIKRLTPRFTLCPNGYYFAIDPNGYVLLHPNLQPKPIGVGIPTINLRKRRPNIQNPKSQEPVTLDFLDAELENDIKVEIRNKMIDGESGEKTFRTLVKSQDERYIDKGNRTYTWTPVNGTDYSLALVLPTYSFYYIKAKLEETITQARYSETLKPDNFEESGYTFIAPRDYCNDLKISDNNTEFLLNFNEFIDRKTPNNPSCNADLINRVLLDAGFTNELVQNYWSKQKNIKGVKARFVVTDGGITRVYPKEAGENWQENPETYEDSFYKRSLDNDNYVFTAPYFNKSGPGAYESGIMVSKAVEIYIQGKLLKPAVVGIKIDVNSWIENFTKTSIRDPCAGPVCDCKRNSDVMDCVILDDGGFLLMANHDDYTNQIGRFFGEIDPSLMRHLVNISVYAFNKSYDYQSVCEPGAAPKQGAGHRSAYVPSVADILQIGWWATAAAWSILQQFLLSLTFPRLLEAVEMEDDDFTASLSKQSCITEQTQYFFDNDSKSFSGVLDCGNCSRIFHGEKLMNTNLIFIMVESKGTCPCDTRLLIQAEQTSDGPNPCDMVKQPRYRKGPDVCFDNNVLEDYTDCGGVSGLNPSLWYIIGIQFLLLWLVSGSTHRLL
NSB (non specific binding) was measured by adding 10 μM pregabalin. After 60 min incubation at 27° C., binding reaction was terminated by filtering through Multiscreen GF/C (Millipore) presoaked in 0.5% polyethyleneimine in Vacuum Manifold Station, followed by 3 washes with ice-cold filtration buffer containing 50 mM Tris-HCl, pH 7.4.
Filter plates were dried at 60° C. for 1 hour and 30 μl of scintillation cocktail were added to each well before radioactivity reading.
In the case of `CCNc1cc2c(cn1)C(=O)N(c1cccc(-c3nnc(C)n3CC)c1)CCN2C` [Example 55, 4-(3-(4-ethyl-5-methyl-4H-1,2,4-triazol-3-yl)phenyl)-8-(ethylamino)-1-methyl-1,2,3,4-tetrahydro-5H-pyrido[4,3-e][1,4]diazepin-5-one], the Ki is 500 to 3000 nM.

Take `CCNc1cc2c(cn1)C(=O)N(c1cccc(OC(CCN(C)C(=O)OCC[Si](C)(C)C)c3cccs3)c1)CCN2C` (centres unmarked) [Example 58, 2-(trimethyl-silyl)ethyl (3-(3-(8-(ethylamino)-1-methyl-5-oxo-1,2,3,5-tetrahydro-4H-pyrido[4,3-e] [1,4]diazepin-4-yl)phenoxy)-3-(thiophen-2-yl)propyl)(methyl) carbamate]: the Ki is > 3000 nM.

`CN(CCC(Oc1cccc(N2CCN(C)c3cc(N(C)C)ncc3C2=O)c1)c1cccs1)C(=O)OCC[Si](C)(C)C` (centres unmarked) [Example 59, 2-(trimethyl-silyl)ethyl (3-(3-(8-(dimethylamino)-1-methyl-5-oxo-1,2,3,5-tetrahydro-4H-pyrido[4,3-e] [1,4]diazepin-4-yl)phenoxy)-3-(thiophen-2-yl)propyl)(methyl) carbamate]: the inhibition constant (Ki) is > 3000 nM.

Take `CCNc1cc2c(cn1)C(=O)N(c1cccc(COC(CCN(C)C(=O)OCC[Si](C)(C)C)c3cccs3)c1)CCN2C` (centres unmarked) [Example 60, 2-(trimethyl-silyl)ethyl (3-((3-(8-(ethylamino)-1-methyl-5-oxo-1,2,3,5-tetrahydro-4H-pyrido[4,3-e] [1,4]diazepin-4-yl)benzyl)oxy)-3-(thiophen-2-yl)propyl) (methyl) carbamate]: the Ki is > 3000 nM.

On to `CSc1ncc2c(n1)N(C)CCN(Cc1cccc(OC(CN(C)C(=O)OC(C)(C)C)c3ccccc3)c1)C2=O` (centres unmarked) [Example 62, tert-Butyl methyl(2-(3-((9-methyl-2-(methylthio)-5-oxo-5,7,8,9-tetrahydro-6H-pyrimido[4,5-e][1,4]diazepin-6-yl)methyl)phenoxy)-2-phenylethyl) carbamate], for which the Ki was > 3000 nM.

As to `CSc1ncc2c(n1)N(C)CCN(Cc1ccc(OC(CN(C)C(=O)OC(C)(C)C)c3ccccc3)cc1)C2=O` (centres unmarked) [Example 63, tert-butyl methyl(2-(4-((9-methyl-2-(methylthio)-5-oxo-5,7,8,9-tetrahydro-6H-pyrimido[4,5-e][1,4]diazepin-6-yl)methyl)phenoxy)-2-phenylethyl)carbamate], the Ki was > 3000 nM.

Regarding `CSc1ncc2c(n1)N(C)CCN(Cc1ccc(CN(C)C(=O)OC(C)(C)C)cc1)C2=O` [Example 64, tert-butyl methyl(4-((9-methyl-2-(methylthio)-5-oxo-5,7,8,9-tetrahydro-6H-pyrimido[4,5-e][1,4]diazepin-6-yl)methyl)benzyl) carbamate], the Ki was > 3000 nM.

Regarding `CCNc1ncc2c(n1)N(C)CCN(c1cccc(CO[C@H](CCN(C)C(=O)OC(C)(C)C)c3ccccc3)c1)C2` [Example 65, tert-Butyl (R)-(3-((3-(2-(ethylamino)-9-methyl-5,7,8,9-tetrahydro-6H-pyrimido[4,5-e][1,4]diazepin-6-yl)benzyl)oxy)-3-phenylpropyl)(methyl)carbamate], the Ki was > 3000 nM.

With `CCNc1ncc2c(n1)N(C)CCN(c1cccc(-c3nnc(C)o3)c1)C2` [Example 66, N-ethyl-9-methyl-6-(3-(5-methyl-1,3,4-oxadiazol-2-yl)phenyl)-6,7,8,9-tetrahydro-5H-pyrimido[4,5-e][1,4]diazepin-2-amine], the Ki fell in the range of 500 to 3000 nM.

As to `CCNc1ncc2c(n1)N(C)CCN(Cc1cccc(OC)c1)C2` [Example 67, N-ethyl-6-(3-methoxybenzyl)-9-methyl-6,7,8,9-tetrahydro-5H-pyrimido[4,5-e][1,4]diazepin-2-amine], the inhibition constant Ki is > 3000 nM.

`CCNc1ncc2c(n1)N(C)CCN(Cc1ccc(OC)cc1)C2` [Example 68, N-ethyl-6-(4-methoxybenzyl)-9-methyl-6,7,8,9-tetrahydro-5H-pyrimido[4,5-e][1,4]diazepin-2-amine]: the Ki was > 3000 nM.

In the case of `CCNc1ncc2c(n1)N(C)CCN(c1cccc(OC(CCN(C)C(=O)OC(C)(C)C)c3ccccc3)c1)C2=O` (centres unmarked) [Example 69, tert-Butyl (3-(3-(2-(ethylamino)-9-methyl-5-oxo-5,7,8,9-tetrahydro-6H-pyrimido[4,5-e][1,4]diazepin-6-yl)phenoxy)-3-phenylpropyl)(methyl)carbamate], the Ki was > 3000 nM.

With `CCNc1ncc2c(n1)N(C)CCN(c1cccc(O[C@H](CCN(C)C(=O)OC(C)(C)C)c3ccccc3)c1)C2=O` [Example 70, tert-butyl (R)-(3-(3-(2-(ethylamino)-9-methyl-5-oxo-5,7,8,9-tetrahydro-6H-pyrimido[4,5-e][1,4]diazepin-6-yl)phenoxy)-3-phenylpropyl)(methyl) carbamate], the Ki was > 3000 nM.

Regarding `CCNc1ncc2c(n1)N(C)CCN(c1cccc(O[C@@H](CCN(C)C(=O)OC(C)(C)C)c3ccccc3)c1)C2=O` [Example 71, tert-butyl (S)-(3-(3-(2-(ethylamino)-9-methyl-5-oxo-5,7,8,9-tetrahydro-6H-pyrimido[4,5-e][1,4]diazepin-6-yl)phenoxy)-3-phenylpropyl)(methyl) carbamate], the inhibition constant Ki is > 3000 nM.

In the case of `CCNc1ncc2c(n1)N(C)CCN(c1cccc(OC(CN(C)C(=O)OC(C)(C)C)c3ccccc3)c1)C2=O` (centres unmarked) [Example 72, tert-butyl (2-(3-(2-(ethylamino)-9-methyl-5-oxo-5,7,8,9-tetrahydro-6H-pyrimido[4,5-e][1,4]diazepin-6-yl)phenoxy)-2-phenylethyl)(methyl) carbamate], the Ki was > 3000 nM.

Regarding `CCNc1ncc2c(n1)N(C)CCN(c1cccc(OC(CNC(=O)OC(C)(C)C)c3ccccc3)c1)C2=O` (centres unmarked) [Example 73, tert-butyl (2-(3-(2-(ethylamino)-9-methyl-5-oxo-5,7,8,9-tetrahydro-6H-pyrimido[4,5-e][1,4]diazepin-6-yl)phenoxy)-2-phenylethyl)carbamate], the Ki was > 3000 nM.

`CCNc1ncc2c(n1)N(C)CCN(c1cccc(OC(C)CN(C)C(=O)OC(C)(C)C)c1)C2=O` (centres unmarked) [Example 74, tert-butyl (2-(3-(2-(ethylamino)-9-methyl-5-oxo-5,7,8,9-tetrahydro-6H-pyrimido[4,5-e][1,4]diazepin-6-yl)phenoxy)propyl) (methyl)carbamate]: the Ki is > 3000 nM.

Turning to `CCNc1ncc2c(n1)N(C)CCN(c1cccc(OC(CN(C)C(=O)OC(C)(C)C)C(C)C)c1)C2=O` (centres unmarked) [Example 75, tert-butyl (2-(3-(2-(ethylamino)-9-methyl-5-oxo-5,7,8,9-tetrahydro-6H-pyrimido[4,5-e][1,4]diazepin-6-yl)phenoxy)-3-methylbutyl) (methyl)carbamate], the Ki is > 3000 nM.

On to `CCNc1ncc2c(n1)N(C)CCN(c1ccc(OC(CN(C)C(=O)OC(C)(C)C)c3ccccc3)cc1)C2=O` (centres unmarked) [Example 76, tert-butyl (2-(4-(2-(ethylamino)-9-methyl-5-oxo-5,7,8,9-tetrahydro-6H-pyrimido[4,5-e][1,4]diazepin-6-yl)phenoxy)-2-phenylethyl)(methyl) carbamate], for which the Ki was > 3000 nM.

On to `CCNc1ncc2c(n1)N(C)CCN(c1cccc(COC(CCN(C)C(=O)OC(C)(C)C)c3ccccc3)c1)C2=O` (centres unmarked) [Example 77, tert-butyl (3-((3-(2-(ethylamino)-9-methyl-5-oxo-5,7,8,9-tetrahydro-6H-pyrimido[4,5-e][1,4]diazepin-6-yl)benzyl)oxy)-3-phenylpropyl)(methyl) carbamate], for which the Ki is > 3000 nM.

For `CCNc1ncc2c(n1)N(C)CCN(c1cccc(CO[C@H](CCN(C)C(=O)OC(C)(C)C)c3ccccc3)c1)C2=O` [Example 78, tert-butyl (R)-(3-((3-(2-(ethylamino)-9-methyl-5-oxo-5,7,8,9-tetrahydro-6H-pyrimido[4,5-e][1,4]diazepin-6-yl)benzyl)oxy)-3-phenylpropyl)(methyl) carbamate], the Ki is > 3000 nM.

`CCNc1ncc2c(n1)N(C)CCN(c1cccc(CO[C@@H](CCN(C)C(=O)OC(C)(C)C)c3ccccc3)c1)C2=O` [Example 79, tert-butyl (S)-(3-((3-(2-(ethylamino)-9-methyl-5-oxo-5,7,8,9-tetrahydro-6H-pyrimido[4,5-e][1,4]diazepin-6-yl)benzyl)oxy)-3-phenylpropyl)(methyl) carbamate]: the Ki is > 3000 nM.

Regarding `CCNc1ncc2c(n1)N(C)CCN(c1cccc(OC(CCN(C)C(=O)OC(C)(C)C)c3cccs3)c1)C2=O` (centres unmarked) [Example 80, tert-butyl (3-(3-(2-(ethylamino)-9-methyl-5-oxo-5,7,8,9-tetrahydro-6H-pyrimido[4,5-e][1,4]diazepin-6-yl)phenoxy)-3-(thiophen-2-yl)propyl)(methyl) carbamate], the Ki is > 3000 nM.

On to `CCNc1ncc2c(n1)N(C)CCN(c1cccc(O[C@H](CCN(C)C(=O)OC(C)(C)C)c3cccs3)c1)C2=O` [Example 81, tert-butyl (R)-(3-(3-(2-(ethylamino)-9-methyl-5-oxo-5,7,8,9-tetrahydro-6H-pyrimido[4,5-e][1,4]diazepin-6-yl)phenoxy)-3-(thiophen-2-yl)propyl)(methyl) carbamate], for which the Ki was > 3000 nM.

With `CCNc1ncc2c(n1)N(C)CCN(c1cccc(O[C@@H](CCN(C)C(=O)OC(C)(C)C)c3cccs3)c1)C2=O` [Example 82, tert-butyl (S)-(3-(3-(2-(ethylamino)-9-methyl-5-oxo-5,7,8,9-tetrahydro-6H-pyrimido[4,5-e][1,4]diazepin-6-yl)phenoxy)-3-(thiophen-2-yl)propyl)(methyl) carbamate], the Ki was > 3000 nM.

For `CCNc1ncc2c(n1)N(C)CCN(c1cccc(COC(CCN(C)C(=O)OC(C)(C)C)c3cccs3)c1)C2=O` (centres unmarked) [Example 83, tert-butyl (3-((3-(2-(ethylamino)-9-methyl-5-oxo-5,7,8,9-tetrahydro-6H-pyrimido[4,5-e][1,4]diazepin-6-yl)benzyl)oxy)-3-(thiophen-2-yl)propyl)(methyl) carbamate], the Ki was > 3000 nM.

(Values after patent publication US10590140B2, “Tetrahydropyrimidodiazepine and dihydropyridodiazepine compounds for treating pain and pain related conditions” (ESTEVE PHARMACEUTICALS, S.A., priority 2016, dated 2020).)
